# Data: patent USRE38132E1, “Phenylpyrrolidines, phenylimidazolidines,3-phenyl-1,3-oxizolidines and 3-phenyl-1,3-thiazolidines and their use in the treatment of inflammatory disease” (Boehringer Ingelheim Pharmaceuticals, Inc., priority 1997, dated 2003)
# Molecular target: T1, interaction of ICAM-1 with the Leukointegrin CD18/CD11a (LFA-1) (Homo sapiens, UniProt P05107+P20701)
# T1 construct: endogenous in cells; sICAM-1: made in house, secreted from transfected CHO DUX cells
# Experiment: Assay to determine inhibition of LFA-1 binding to ICAM-1 (immunopurified LFA-1 on plate-bound sICAM-1, ELISA readout)
# Settings: not given
# T1 sequence (P20701 26-1170): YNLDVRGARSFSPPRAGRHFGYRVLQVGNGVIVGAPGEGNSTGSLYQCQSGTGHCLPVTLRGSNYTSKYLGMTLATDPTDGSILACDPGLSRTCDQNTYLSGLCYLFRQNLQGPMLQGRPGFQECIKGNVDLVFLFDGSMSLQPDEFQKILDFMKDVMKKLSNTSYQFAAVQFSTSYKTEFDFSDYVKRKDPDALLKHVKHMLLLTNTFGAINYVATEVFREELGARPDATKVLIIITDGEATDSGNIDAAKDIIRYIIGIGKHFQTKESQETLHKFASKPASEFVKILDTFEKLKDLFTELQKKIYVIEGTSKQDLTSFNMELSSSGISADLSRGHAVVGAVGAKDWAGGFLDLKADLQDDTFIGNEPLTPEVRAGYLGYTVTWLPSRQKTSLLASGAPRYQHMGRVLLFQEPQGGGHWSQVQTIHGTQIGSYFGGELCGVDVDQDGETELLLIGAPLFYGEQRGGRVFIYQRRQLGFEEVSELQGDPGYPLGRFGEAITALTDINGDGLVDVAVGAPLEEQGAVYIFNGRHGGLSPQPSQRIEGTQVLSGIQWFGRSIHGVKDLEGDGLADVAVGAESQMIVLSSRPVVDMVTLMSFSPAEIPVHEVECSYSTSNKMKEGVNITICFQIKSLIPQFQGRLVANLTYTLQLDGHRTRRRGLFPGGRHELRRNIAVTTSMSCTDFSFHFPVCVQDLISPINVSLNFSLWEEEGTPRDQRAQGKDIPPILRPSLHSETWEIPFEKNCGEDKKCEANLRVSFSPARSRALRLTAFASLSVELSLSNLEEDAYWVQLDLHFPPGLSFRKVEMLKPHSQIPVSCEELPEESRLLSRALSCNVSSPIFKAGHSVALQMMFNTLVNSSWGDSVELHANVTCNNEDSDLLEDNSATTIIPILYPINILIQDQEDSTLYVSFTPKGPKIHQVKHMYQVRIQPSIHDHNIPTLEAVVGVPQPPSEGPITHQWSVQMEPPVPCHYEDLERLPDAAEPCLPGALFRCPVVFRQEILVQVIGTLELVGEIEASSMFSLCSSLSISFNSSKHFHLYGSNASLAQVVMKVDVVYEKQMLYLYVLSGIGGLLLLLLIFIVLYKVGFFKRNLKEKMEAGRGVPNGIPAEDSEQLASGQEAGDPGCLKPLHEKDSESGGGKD
# T1 sequence (P05107 23-769): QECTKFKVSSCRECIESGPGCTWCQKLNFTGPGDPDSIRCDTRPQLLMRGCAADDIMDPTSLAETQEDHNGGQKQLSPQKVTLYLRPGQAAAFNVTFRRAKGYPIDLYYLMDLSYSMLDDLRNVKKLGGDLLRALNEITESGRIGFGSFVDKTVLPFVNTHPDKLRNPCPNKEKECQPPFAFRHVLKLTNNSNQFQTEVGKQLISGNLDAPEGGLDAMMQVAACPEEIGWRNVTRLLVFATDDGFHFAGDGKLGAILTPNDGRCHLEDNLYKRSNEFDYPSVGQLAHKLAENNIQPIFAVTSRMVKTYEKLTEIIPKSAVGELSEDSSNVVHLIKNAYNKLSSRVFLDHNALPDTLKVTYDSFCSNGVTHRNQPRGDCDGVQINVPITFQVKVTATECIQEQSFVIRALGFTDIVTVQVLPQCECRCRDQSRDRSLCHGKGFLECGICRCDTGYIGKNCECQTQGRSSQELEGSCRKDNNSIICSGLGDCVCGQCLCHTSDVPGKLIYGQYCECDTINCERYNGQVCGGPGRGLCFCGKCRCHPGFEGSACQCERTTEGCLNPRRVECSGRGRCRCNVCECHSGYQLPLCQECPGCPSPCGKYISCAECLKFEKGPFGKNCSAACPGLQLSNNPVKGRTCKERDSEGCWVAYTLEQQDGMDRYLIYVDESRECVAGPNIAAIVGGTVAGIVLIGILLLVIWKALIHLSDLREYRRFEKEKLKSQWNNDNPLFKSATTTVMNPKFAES
row,SMILES,Kd [nM]
1,CC1(Cc2ccccc2)C(=O)N(c2cc(Cl)cc(Cl)c2)C(=O)N1CCO (stereo not shown) [Example 218],800
2,C[C@]1(Cc2ccc(Br)cc2)CC(=O)N(c2cc(Cl)cc(Cl)c2)C1=O [Example 277],70
3,COc1cccc(-c2ccc(CC3(C)NC(=O)N(c4cc(Cl)cc(Cl)c4)C3=O)cc2)c1 (stereo not shown) [Example 214],90
4,CN1C(=O)N(c2cc(Cl)cc(Cl)c2)C(=O)C1(C)Cc1ccc(C(=O)N2CCCCC2)cc1 (stereo not shown) [Example 259],3540
5,CC1(Cc2ccc(-c3cc4ccccc4o3)cc2)NC(=O)N(c2cc(Cl)cc(Cl)c2)C1=O (stereo not shown) [Example 209],940
6,O=C1NC(CCc2ccc(I)cc2)C(=O)N1c1cc(Cl)cc(Cl)c1 (stereo not shown) [Example 217],1780
7,C[C@@]1(Cc2ccc(Br)cc2)C(=O)N(c2cc(Cl)cc(Cl)c2)C(=O)N1C(=O)[C@H](N)CO [Example 232],1240
8,CC1(Cc2ccccc2)C(=O)N(c2cc(Cl)cc(Cl)c2)C(=O)N1CCCCC(=O)O (stereo not shown) [Example 219],1030
9,CC1(Cc2ccc(-c3ccccc3C(F)(F)F)cc2)NC(=O)N(c2cc(Cl)cc(Cl)c2)C1=O (stereo not shown) [Example 213],~2000
10,CCN1C(=O)N(c2cc(Cl)cc(Cl)c2)C(=O)[C@]1(C)Cc1ccc(Br)cc1 [Example 275],2000
11,CN1C(=O)N(c2cc(Cl)cc(Cl)c2)C(=O)C1(CN)Cc1ccc(Br)cc1 (stereo not shown) [Example 230],2200
12,CC1(Cc2ccc(-c3ccc4ccccc4c3)cc2)NC(=O)N(c2cc(Cl)cc(Cl)c2)C1=O (stereo not shown) [Example 211],~2000
13,Cc1cc(C)cc(-c2ccc(CC3(C)NC(=O)N(c4cc(Cl)cc(Cl)c4)C3=O)cc2)c1 (stereo not shown) [Example 210],540
14,C[C@@]1(Cc2ccc(Br)cc2)C(=O)N(c2cc(Cl)cc(Cl)c2)C(=O)N1C(=O)[C@@H](N)CO [Example 233],1790
15,C[C@@]1(Cc2ccc(Br)cc2)C(=O)N(c2cc(Cl)cc(Cl)c2)C(=O)N1CCCCCP(=O)(O)O [Example 221],140
16,C[C@@]1(Cc2ccc(Br)cc2)C(=O)N(c2cc(Cl)cc(Cl)c2)C(=O)N1C1CCN(CP(=O)(O)O)CC1 [Example 236],330
17,C[C@]1(Cc2ccc(C(=O)c3ccccc3)cc2)NC(=O)N(c2cc(Cl)cc(Cl)c2)C1=O [Example 216],500
18,C[C@@]1(Cc2ccc(Br)cc2)C(=O)N(c2cc(Cl)cc(Cl)c2)C(=O)N1CCCCCCP(=O)(O)O [Example 220],270
19,C[C@@]1(Cc2ccc(Br)cc2)C(=O)N(c2cc(Cl)cc(Cl)c2)C(=O)N1C(=O)[C@@H]1CCCN1 [Example 234],410

# Same assay, conditions: at 160 μg/mL; read-out: LFA-1/ICAM Binding Assay percent inhibition
row,SMILES,inhibition at 160 µg/mL [%]
1,O=C1NC(Cc2cccnc2)C(=O)N1c1cc(Cl)cc(Cl)c1 (stereo not shown) [Example 181],47

# Same assay, conditions: values marked e approximated from incomplete dose-response curve
row,SMILES,Kd [nM]
1,CN1C(=O)N(c2cc(Cl)cc(Cl)c2)C(=O)C1(C)Cc1cccc(Cl)c1 (stereo not shown) [Example 155],510
2,CC1(Cc2ccccc2)C(=O)N(c2cc(Cl)cc(Cl)c2)C(=O)N1C1CC1 (stereo not shown) [Example 150],510
3,O=C1NC(Cc2ccccc2)C(=O)N1c1cc(Cl)c(I)c(Cl)c1 (stereo not shown) [Example 71],4380
4,CCOc1ccccc1-c1ccc(CC2(C)NC(=O)N(c3cc(Cl)cc(Cl)c3)C2=O)cc1 (stereo not shown) [Example 193],290
5,CC1(Cc2ccc(-c3ccc(Cl)cc3)cc2)NC(=O)N(c2cc(Cl)cc(Cl)c2)C1=O (stereo not shown) [Example 205],560
6,CN1C(=O)N(c2cc(Cl)cc(Cl)c2)C(=O)C1(C)Cc1ccc2c(c1)OCO2 (stereo not shown) [Example 160],640
7,C[C@H](O)CN1C(=O)N(c2cc(Cl)cc(Cl)c2)C(=O)[C@@]1(C)Cc1ccc(Br)cc1 [Example 116],190
8,Cc1cccc(CC2(C)C(=O)N(c3cc(Cl)cc(Cl)c3)C(=O)N2C)c1 (stereo not shown) [Example 143],1200
9,CC1(Cc2cccc(O)c2)NC(=O)N(c2cc(Cl)cc(Cl)c2)C1=O (stereo not shown) [Example 11],6300
10,Cc1ccc(CC2(C)C(=O)N(c3cc(Cl)cc(Cl)c3)C(=O)N2C)cc1 (stereo not shown) [Example 144],350
11,CCOc1ccc(-c2ccc(CC3(C)NC(=O)N(c4cc(Cl)cc(Cl)c4)C3=O)cc2)cc1 (stereo not shown) [Example 207],1280
12,O=C1NC(Cc2ccccc2)C(=O)N1c1cc(Cl)c(Cl)c(Cl)c1 (stereo not shown) [Example 70],1890
13,C[C@@]1(Cc2ccc(Br)cc2)C(=O)N(c2cc(Cl)cc(Cl)c2)C(=O)N1CCCCCCCl [Example 120],480
14,CC1(Cc2ccc(OC(F)(F)F)cc2)NC(=O)N(c2cc(Cl)cc(Cl)c2)C1=O (stereo not shown) [Example 57],360
15,CC(N)(Cc1c[nH]c2ccccc12)C(=O)O (stereo not shown) [Example 25],3080
16,CN1C(=O)N(c2cc(Cl)cc(Cl)c2)C(=O)C1(C)Cc1ccccc1 (stereo not shown) [Example 158],690
17,CC1(Cc2ccc(-c3ccsc3)cc2)NC(=O)N(c2cc(Cl)cc(Cl)c2)C1=O (stereo not shown) [Example 196],90
18,Cc1cc(C)cc(CC2(C)C(=O)N(c3cc(Cl)cc(Cl)c3)C(=O)N2C)c1 (stereo not shown) [Example 162],1050
19,CN1C(=O)N(c2cc(Cl)cc(Cl)c2)C(=O)C1(C)Cc1ccc(C(=O)c2ccccc2)cc1 (stereo not shown) [Example 168],410
20,O=C1NC(C(O)c2ccccc2)C(=O)N1c1cc(Cl)cc(Cl)c1 (stereo not shown) [Example 179],3840

row,SMILES,Kd [nM]
1,C[C@@]1(Cc2ccc(Br)cc2)C(=O)N(c2cc(Cl)cc(Cl)c2)C(=O)N1Cc1ccccc1C#N [Example 114],260
2,CC1(Cc2cccc(Oc3ccccc3)c2)NC(=O)N(c2cc(Cl)cc(Cl)c2)C1=O (stereo not shown) [Example 56],480
3,COc1ccccc1CN1C(=O)N(c2cc(Cl)cc(Cl)c2)C(=O)[C@@]1(C)Cc1ccc(Br)cc1 [Example 126],810
4,O=C1NC(Cc2ccc(Br)cc2)C(=O)N1c1cc(Cl)cc(Cl)c1 (stereo not shown) [Example 19],760
5,CC1(Cc2cccc(C(F)(F)F)c2)NC(=O)N(c2cc(Cl)cc(Cl)c2)C1=O (stereo not shown) [Example 53],1470
6,CC1(Cc2ccc(-c3ccccc3Cl)cc2)NC(=O)N(c2cc(Cl)cc(Cl)c2)C1=O (stereo not shown) [Example 191],140
7,CC(=O)Nc1cccc(-c2ccc(CC3(C)NC(=O)N(c4cc(Cl)cc(Cl)c4)C3=O)cc2)c1 (stereo not shown) [Example 203],340
8,O=C(c1ccccc1)c1ccc(CC2NC(=O)N(c3cc(Cl)cc(Cl)c3)C2=O)cc1 (stereo not shown) [Example 1],1640
9,COc1ccc(CC2(C)C(=O)N(c3cc(Cl)cc(Cl)c3)C(=O)N2C)cc1 (stereo not shown) [Example 166],280
10,CC1(Cc2ccc(-c3ccc(Cl)cc3Cl)cc2)NC(=O)N(c2cc(Cl)cc(Cl)c2)C1=O (stereo not shown) [Example 201],680
11,CCCCOc1cc(CC2(C)NC(=O)N(c3cc(Cl)cc(Cl)c3)C2=O)nc(C(F)(F)F)c1 (stereo not shown) [Example 63],~3000
12,CN(C)CCN1C(=O)N(c2cc(Cl)cc(Cl)c2)C(=O)C1(C)Cc1ccc(Br)cc1 (stereo not shown) [Example 99],520
13,CC(C)(C)C(=O)c1ccc(CC2(C)NC(=O)N(c3cc(Cl)cc(Cl)c3)C2=O)cc1 (stereo not shown) [Example 47],4310
14,CN1C(=O)N(c2cc(Cl)cc(Cl)c2)C(=O)C1(C)Cc1ccc2ccccc2n1 (stereo not shown) [Example 161],4560
15,CC1(Cc2csc3ccccc23)NC(=O)N(c2cc(Cl)cc(Cl)c2)C1=O (stereo not shown) [Example 27],~52000
16,Cc1ccc(-c2ccc(CC3(C)NC(=O)N(c4cc(Cl)cc(Cl)c4)C3=O)cc2)cc1[N+](=O)[O-] (stereo not shown) [Example 192],~1000
17,CN1C(=O)N(c2cc(Cl)cc(Cl)c2)C(=O)C1(C)Cc1ccccc1Br (stereo not shown) [Example 145],1050
18,CC1(Cc2ccc(-c3ccc(Cl)s3)cc2)NC(=O)N(c2cc(Cl)cc(Cl)c2)C1=O (stereo not shown) [Example 199],270
19,Cc1ccccc1CC1(C)C(=O)N(c2cc(Cl)cc(Cl)c2)C(=O)N1C (stereo not shown) [Example 142],430
20,Cc1ccccc1-c1ccc(CC2(C)NC(=O)N(c3cc(Cl)cc(Cl)c3)C2=O)cc1 (stereo not shown) [Example 197],190

row,SMILES,Kd [nM]
1,CN1C(=O)N(c2cccc(Cl)c2)C(=O)[C@@]1(C)Cc1ccc(Br)cc1 [Example 101],680
2,CC1(Cc2ccccc2)C(=O)N(c2cc(Cl)cc(Cl)c2)C(=O)N1C1CCCCC1 (stereo not shown) [Example 33],940
3,C[C@@H]1C(=O)N(c2cc(Cl)cc(Cl)c2)C(=O)[C@]1(C)Cc1ccc(Br)cc1 [Example 73],340
4,CN1C(=O)N(c2cc(Cl)cc(Cl)c2)C(=O)[C@@]1(C)Cc1ccc(-c2ccc(C(=O)O)cc2)cc1 [Example 186],1110
5,CN1C(=O)N(c2cc(Cl)cc(Cl)c2)C(=O)C1(C)Cc1cccc(F)c1 (stereo not shown) [Example 147],340
6,O=C1C(Cc2ccccc2)N(Cc2ccccc2)C(=O)N1c1cc(Cl)cc(Cl)c1 (stereo not shown) [Example 84],420
7,CC1(Cc2ccc(-c3cccc(Br)c3)cc2)NC(=O)N(c2cc(Cl)cc(Cl)c2)C1=O (stereo not shown) [Example 206],730
8,O=C1NC(Cc2ccsc2)C(=O)N1c1cc(Cl)cc(Cl)c1 (stereo not shown) [Example 26],2750
9,CN(C)C(=O)CN1C(=O)N(c2cc(Cl)cc(Cl)c2)C(=O)[C@@]1(C)Cc1ccc(Br)cc1 [Example 107],490
10,O=C1NC(C(c2ccccc2)c2ccccc2)C(=O)N1c1cc(Cl)cc(Cl)c1 (stereo not shown) [Example 13],1960
11,CC1(Cc2cc(F)cc(F)c2)NC(=O)N(c2cc(Cl)cc(Cl)c2)C1=O (stereo not shown) [Example 58],2850
12,Cc1cccc(C)c1CC1(C)NC(=O)N(c2cc(Cl)cc(Cl)c2)C1=O (stereo not shown) [Example 38],1150
13,CN1C(=O)N(c2cc(Cl)cc(Cl)c2)C(=O)C1(C)Cc1ccccc1C#N (stereo not shown) [Example 152],2660
14,CC(C)C1(Cc2ccccc2)NC(=O)N(c2cc(Cl)cc(Cl)c2)C1=O (stereo not shown) [Example 32],12100
15,C[C@@]1(Cc2ccc(Br)cc2)C(=O)N(c2cc(Cl)cc(Cl)c2)C(=O)N1Cc1cccc(C#N)c1 [Example 104],270
16,CN1C(=O)N(c2cc(Cl)cc(Cl)c2)C(=O)C1(C)Cc1cccc(C#N)c1 (stereo not shown) [Example 153],2190
17,CN(C)CCN1C(=O)N(c2cc(Cl)cc(Cl)c2)C(=O)[C@@]1(C)Cc1ccc(Br)cc1 [Example 108],410
18,C[C@]1(Cc2ccc(-c3ccc(C(=O)O)cc3)cc2)NC(=O)N(c2cc(Cl)cc(Cl)c2)C1=O [Example 183],940
19,CN1C(=O)N(c2cc(Cl)cc(Cl)c2)C(=O)C1(C)Cc1ccc(S(C)(=O)=O)cc1 (stereo not shown) [Example 176],3960
